Laboratory results published in article PMC12133982, “Predominant T-cell epitopes of SARS-CoV-2 restricted by multiple prevalent HLA-B and HLA-C allotypes in Northeast Asia” (Frontiers in Immunology, 2025).
Peptide text beside a SMILES is read from it.

How the values were obtained:
HLA-B1301 = HLA-B1301 (Homo sapiens, UniProt P01889, A65T/A93T/A95T/D138N/D201E/D98Y/E176V/E204Q/E69M/E70A/G107R/K202T/L105A/L119I/N104T/N87E/Q94N/R106L/R155S/R169L/R180L/S101N/S121R/S35A/S48T/T118I/V127L/V36M/Y140L/Y91S); assay: Competitive peptide binding assay, CIR-B1301; details: HMy2.CIR-B1301 cells, reference Cy5-[…], class from inhibition at 5 and 15 μM, flow cytometry MFI; read-out: Binding affinity with HLA-B1301
Experimental: (§1) Then, competitive peptide binding assays were performed.

HLA-B5801 = HLA-B5801 (Homo sapiens, UniProt P01889, A329T/C349S/D201E/D98Y/E176V/E187L/E204Q/E69T/G107R/I218V/I90N/K202T/L105A/L119I/N104I/N87E/Q89R/Q94S/R106L/R155S/R180L/R86G/S101N/S121R/S35A/S48A/T118I/V127L/V306I/V36M/Y140S/Y91M); assay: Competitive peptide binding assay, CIR-B5801; details: HMy2.CIR-B5801 cells, reference Cy5-[…], class from inhibition at 5 and 15 μM, flow cytometry MFI; read-out: Binding affinity with HLA-B5801
Experimental: as §1

HLA-B4601 = HLA-B4601 (Homo sapiens, UniProt P01889, A329T/A93R/C349S/D201E/E100V/E187L/E204Q/E69M/E70A/I90K/K202T/N87E/R155S/R180W/S121R/S35A/S48A/V306I/V36M/Y140S); assay: Competitive peptide binding assay, CIR-B4601; details: for IC50: HMy2.CIR-B4601 cells, reference Cy5-[…], class from inhibition at 5 and 15 μM, flow cytometry MFI, read-out: Binding affinity with HLA-B4601; for inhibition at 5 µM: read-out: Inhibition % of Cy5-reference peptide binding, CIR-B4601, 5μM peptide; for inhibition at 15 µM: read-out: Inhibition % of Cy5-reference peptide binding, CIR-B4601, 15μM peptide
Experimental: as §1

HLA-B4001 = HLA-B4001 (Homo sapiens, UniProt P01889, A65T/A93T/A95T/D138N/D98Y/E176V/E69K/N87E/Q56L/Q94N/R180L/S121R/S35A/S48T/T167S/V36M/W171L/Y33H/Y91S); assay: Competitive peptide binding assay, CIR-B4001; details: HMy2.CIR-B4001 cells, reference Cy5-[…], class from inhibition at 5 and 15 μM, flow cytometry MFI; read-out: Binding affinity with HLA-B4001
Experimental: as §1

HLA-B3501 = HLA-B3501 (Homo sapiens, UniProt P01889, A329T/A93T/A95T/C349S/D201E/D98Y/E176V/E187L/E204Q/E69T/I218V/K202T/L119I/Q94N/R155S/R180L/S121R/S35A/S48A/T118I/V127L/V306I/V36M/Y140S/Y91F); assay: Competitive peptide binding assay, CIR-B3501; details: HMy2.CIR-B3501 cells, reference Cy5-[…], class from inhibition at 5 and 15 μM, flow cytometry MFI; read-out: Binding affinity with HLA-B3501
Experimental: as §1

HLA-B1302 = HLA-B1302 (Homo sapiens, UniProt P01889, A65T/A93T/A95T/D138N/D201E/D98Y/E176V/E204Q/E69M/E70A/G107R/K202T/L105A/L119W/N104T/N87E/Q94N/R106L/R155S/R169L/R180L/S101N/S121T/S35A/S48T/V127L/V36M/Y140L/Y91S); assay: Competitive peptide binding assay, CIR-B1302; details: HMy2.CIR-B1302 cells, reference Cy5-MMWYWGPSL, class from inhibition at 5 and 15 μM, flow cytometry MFI; read-out: Binding affinity with HLA-B1302
Experimental: as §1

HLA-B1501 = HLA-B1501 (Homo sapiens, UniProt P01889, A329T/A93T/A95T/C349S/D201E/D98Y/E187L/E204Q/E69M/E70A/K202T/N87E/Q94N/R155S/R180W/S121R/S35A/S48A/V306I/V36M/Y140S/Y91S); assay: Competitive peptide binding assay, CIR-B1501; details: HMy2.CIR-B1501 cells, reference Cy5-[…], class from inhibition at 5 and 15 μM, flow cytometry MFI; read-out: Binding affinity with HLA-B1501
Experimental: as §1

HLA-B1502 = HLA-B1502 (Homo sapiens, UniProt P01889, A329T/A93T/A95T/C349S/D201E/D98Y/E187L/E204Q/E69M/E70A/H137Y/K202T/L119I/Q94N/R155S/R180L/S121R/S35A/S48A/T118I/V306I/V36M/Y140S/Y91S); assay: Competitive peptide binding assay, CIR-B1502; details: HMy2.CIR-B1502 cells, reference Cy5-[…], class from inhibition at 5 and 15 μM, flow cytometry MFI; read-out: Binding affinity with HLA-B1502
Experimental: as §1

SMILES | IC50 (HLA-B1301) [µM] | IC50 (HLA-B5801) [µM] | IC50 (HLA-B4601) [µM] | inhibition at 5 µM (HLA-B4601) [%] | inhibition at 15 µM (HLA-B4601) [%] | IC50 (HLA-B4001) [µM] | IC50 (HLA-B3501) [µM] | IC50 (HLA-B1302) [µM] | IC50 (HLA-B1501) [µM] | IC50 (HLA-B1502) [µM]
CC[C@H](C)[C@H](NC(=O)[C@@H](NC(=O)[C@H](CC(C)C)NC(=O)[C@H](CC(N)=O)NC(=O)[C@H](Cc1c[nH]c2ccccc12)NC(=O)[C@H](CCC(N)=O)NC(=O)[C@H](CCC(=O)O)NC(=O)[C@@H](N)CC(C)C)C(C)C)C(=O)NCC(=O)O [Epitope Y215] (H-LEQWNLVIG-OH; N-terminus and C-terminus assumed) | 5 to 15 | > 15 | 5 to 15 | 47.2 | 87.3 | 5 to 15 | > 15 | – | – | –
CC[C@H](C)[C@H](NC(=O)[C@@H](NC(=O)CNC(=O)[C@H](CC(N)=O)NC(=O)[C@H](CO)NC(=O)[C@H](CC(=O)O)NC(=O)[C@H](C)N)[C@@H](C)O)C(=O)N[C@H](C(=O)N[C@H](C(=O)O)C(C)C)[C@@H](C)O [Epitope Y216] (H-ADSNGTITV-OH; N-terminus and C-terminus assumed) | > 15 | 5 to 15 | > 15 | – | – | 5 to 15 | > 15 | > 15 | – | –
CC(C)C[C@H](NC(=O)[C@H](CC(C)C)NC(=O)[C@H](CC(C)C)NC(=O)[C@H](CC(N)=O)NC(=O)[C@H](CO)NC(=O)[C@H](CS)NC(=O)[C@H](CCC(=O)O)NC(=O)[C@@H](N)[C@@H](C)O)C(=O)N[C@@H](CCC(N)=O)C(=O)N[C@@H](Cc1ccc(O)cc1)C(=O)O [Epitope Y231] (H-TECSNLLLQY-OH; N-terminus and C-terminus assumed) | 5 to 15 | – | < 5 | 73.8 | 89.3 | > 15 | – | > 15 | > 15 | > 15
CC[C@H](C)[C@H](NC(=O)[C@H](CC(N)=O)NC(=O)[C@@H](NC(=O)[C@H](CCC(=O)O)NC(=O)[C@@H]1CCCN1C(=O)[C@H](CC(N)=O)NC(=O)[C@H](Cc1ccccc1)NC(=O)[C@H](CO)NC(=O)[C@@H](N)Cc1c[nH]c2ccccc12)[C@@H](C)O)C(=O)O [Epitope Y297] (H-WSFNPETNI-OH; N-terminus and C-terminus assumed) | > 15 | – | – | – | – | > 15 | – | – | < 5 | –
